# Assay results taken from patent publication US20230374034A1, “NOVEL BICYCLIC COMPOUNDS” (PRISM BIOLAB CO., LTD., priority 2020, published 2023).
# System: NICD (Notch intracellular domain) CSL-bla reporter in HeLa cells
# Test: Notch assay (CellSensor T-REx NICD CSL-bla HeLa beta-lactamase reporter; Method 1 / Method 2)
# Format: cell-based
# Settings: Homo sapiens, 10 μM compound, Method 1 (10× compound prepared in assay medium, added to plated cells), read-out: inhibiton (%) at 10 μM
# Procedure, shortened: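 HeLa cells carrying doxycycline-inducible NICD and a CSL-driven beta-lactamase reporter, 10^3 cells/well, were treated with compound plus doxycycline for 16-20 h at 37 °C. CCF4-AM substrate was loaded for 4 h at room temperature; background-subtracted blue (460 nm)/green (530 nm) emission ratio taken per well.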
row,Compound,inhibition at 10 µM [%]
1,"CC(C)CCN1CC2N(C(=O)OCc3cccc4ccccc34)O[C@H](Cc3ccccc3)C(=O)N2[C@@H](C)C1=O (stereo partly drawn) [Compound I-15, (3R,6S)-naphthalen-1-ylmethyl 3-benzyl-8-isopentyl-6-methyl-4,7-dioxohexahydropyrazino[2,1-c][1,2,4]oxadiazine-1(6H)-carboxylate]",52.6
2,"CCCCCCOC(=O)N1O[C@@H](Cc2ccccc2)C(=O)N2C1CN(Cc1ccccc1)C(=O)[C@@H]2Cc1ccc(O)cc1 (stereo partly drawn) [Compound I-6, (35,6S)-hexyl 3,8-dibenzyl-6-(4-hydroxybenzyl)-4,7-dioxohexahydropyrazino[2,1-c][1,2,4]oxadiazine-1(6H)-carboxylate]",62.1
3,"CCCC[C@@H]1ON(C(=O)OCc2ccccc2)C2CN(CCCC)C(=O)[C@H](Cc3ccc(O)cc3)N2C1=O (stereo partly drawn) [Compound I-8, (3S,6S)-benzyl 3,8-dibutyl-6-(4-hydroxybenzyl)-4,7-dioxohexahydropyrazino[2,1-c][1,2,4]oxadiazine-1(6H)-carboxylate]",60.2
4,"CCCC[C@H]1C(=O)N(CCC(N)=O)CC2N(C(=O)OCc3cccc4ccccc34)O[C@@H](Cc3ccccc3)C(=O)N21 (stereo partly drawn) [Compound I-25, (3S,6S)-naphthalen-1-ylmethyl 8-(3-amino-3-oxopropyl)-3-benzyl-6-butyl-4,7-dioxohexahydropyrazino[2,1-c][1,2,4]oxadiazine-1(6H)-carboxylate]",70.3
5,"CC(C)CCN1CC2N(C(=O)OCc3cccc4ccccc34)O[C@H](CC(N)=O)C(=O)N2[C@@H](Cc2ccccc2)C1=O (stereo partly drawn) [Compound I-21, (3R,6S)-naphthalen-1-ylmethyl 3-(2-amino-2-oxoethyl)-6-benzyl-8-isopentyl-4,7-dioxohexahydropyrazino[2,1-c][1,2,4]oxadiazine-1(6H)-carboxylate]",60

# Same assay, conditions: Homo sapiens, 10 μM compound, Method 2 (40 nL of 1000× compound added to plate with Echo), read-out: inhibiton (%) at 10 μM
row,Compound,inhibition at 10 µM [%]
1,"CCCCCOC(=O)N1O[C@H](Cc2ccccc2)C(=O)N2C1CN([C@@H](CC(C)C)C(=O)NCCCc1ccc(O)cc1)C(=O)[C@@H]2CCC(N)=O (stereo partly drawn) [Compound I-127, pentyl (3R,6S)-6-(3-amino-3-oxopropyl)-3-benzyl-8-((S)-1-((3-(4-hydroxyphenyl)propyl)amino)-4-methyl-1-oxopentan-2-yl)-4,7-dioxohexahydropyrazino [2,1-c][1,2,4]oxadiazine-1(6H)-carboxylate]",62.1
2,"CC(C)C[C@H]1ON(CCCC2CCN(S(=O)(=O)c3cccnc3)CC2)C2CN(C3CCN(C)CC3)C(=O)[C@H](CC(C)C)N2C1=O (stereo partly drawn) [Compound I-150, (3R,6S)-3,6-diisobutyl-8-(1-methylpiperidin-4-yl)-1-(3-(1-(pyridin-3-ylsulfonyl)piperidin-4-yl)propyl)tetrahydropyrazino [2,1-c][1,2,4]oxadiazine-4,7(3H,6H)-dione]",69.1
3,"CC(C)CCNC(=O)[C@H](CC(C)C)N1CC2N(C(=O)OCCc3ccc(O)cc3)O[C@H](CC(C)C)C(=O)N2[C@@H](Cc2ccc(O)cc2)C1=O (stereo partly drawn) [Compound I-91, 4-hydroxyphenethyl (3R,6S)-6-(4-hydroxybenzyl)-3-isobutyl-8-((S)-1-(isopentylamino)-4-methyl-1-oxopentan-2-yl)-4,7-dioxohexahydropyrazino[2,1-c][1,2,4]oxadiazine-1(6H)-carboxylate]",51
4,"CC(C)CCNC(=O)[C@H](Cc1ccc(O)cc1)N1CC2N(C(=O)OCCc3ccc(O)cc3)O[C@H](CC(C)C)C(=O)N2[C@@H](Cc2ccc(O)cc2)C1=O (stereo partly drawn) [Compound I-95, 4-hydroxyphenethyl (3R,6S)-6-(4-hydroxybenzyl)-8-((S)-3-(4-hydroxyphenyl)-1-(isopentylamino)-1-oxopropan-2-yl)-3-isobutyl-4,7-dioxohexahydropyrazino[2,1-c][1,2,4]oxadiazine-1(6H)-carboxylate]",60.1
5,"COC(=O)N1O[C@H](CC2CCCCC2)C(=O)N2C1CN(CC1CCCCC1)C(=O)[C@@H]2CCCCN (stereo partly drawn) [Compound I-36, (3R,6S)-methyl 6-(4-aminobutyl)-3,8-bis(cyclohexylmethyl)-4,7-dioxohexahydropyrazino[2,1-c][1,2,4]oxadiazine-1(6H)-carboxylate]",52.2
6,"CC(C)C[C@@H](C(=O)NCCc1ccccc1)N1CC2N(C(=O)OCCc3ccc(O)cc3)O[C@H](Cc3ccccc3)C(=O)N2[C@@H](C)C1=O (stereo partly drawn) [Compound I-121, 4-hydroxyphenethyl (3R,6S)-3-benzyl-6-methyl-8-((S)-4-methyl-1-oxo-1-(phenethylamino)pentan-2-yl)-4,7-dioxohexahydropyrazino [2,1-c][1,2,4]oxadiazine-1(6H)-carboxylate]",63.3
7,"CC(C)C[C@H]1ON(C(=O)OCC2CCCCC2)C2CN(CCc3ccccc3)C(=O)[C@H](CCCCN)N2C1=O (stereo partly drawn) [Compound I-30, (3R,6S)-cyclohexylmethyl 6-(4-aminobutyl)-3-isobutyl-4,7-dioxo-8-phenethylhexahydropyrazino [2,1-c][1,2,4]oxadiazine-1(6H)-carboxylate]",117
8,"CC(C)CCCNC(=O)[C@H](Cc1ccc(O)cc1)N1CC2N(C(=O)OCCc3ccc(O)cc3)O[C@H](Cc3ccccc3)C(=O)N2[C@@H](Cc2ccc(O)cc2)C1=O (stereo partly drawn) [Compound I-110, 4-hydroxyphenethyl (3R,6S)-3-benzyl-6-(4-hydroxybenzyl)-8-((S)-3-(4-hydroxyphenyl)-1-((4-methylpentyl)amino)-1-oxopropan-2-yl)-4,7-dioxohexahydropyrazino[2,1-c][1,2,4]oxadiazine-1(6H)-carboxylate]",75.2
9,"CC(C)C[C@H]1ON(C(=O)NCCC(c2ccccc2)c2ccccc2)C2CN(Cc3ccc4ccccc4c3)C(=O)[C@H](CCC(N)=O)N2C1=O (stereo partly drawn) [Compound I-55, (3R,6S)-6-(3-amino-3-oxopropyl)-N-(3,3-diphenylpropyl)-3-isobutyl-8-(naphthalen-2-ylmethyl)-4,7-dioxohexahydropyrazino[2,1-c][1,2,4]oxadiazine-1(6H)-carboxamide]",58.7
10,"CC(C)C[C@H]1C(=O)N(C2CCN(C)CC2)CC2N(CCCc3ccccc3)O[C@H](CC3CCCCC3)C(=O)N21 (stereo partly drawn) [Compound I-141, (3R,6S)-3-(cyclohexylmethyl)-6-isobutyl-8-(1-methylpiperidin-4-yl)-1-(3-phenylpropyl) tetrahydropyrazino [2,1-c][1,2,4]oxadiazine-4,7(3H,6H)-dione]",83.1
11,"CC(C)C[C@H]1ON(C(=O)OCc2ccccc2)[C@H]2CN(C3CCN(C)CC3)C(=O)[C@H](CCCCNCc3ccc4ccccc4n3)N2C1=O [Compound I-145, benzyl (3R,6S,9aS)-3-isobutyl-8-(1-methylpiperidin-4-yl)-4,7-dioxo-6-(4-((quinolin-2-ylmethyl)amino)butyl) hexahydropyrazino[2,1-c][1,2,4]oxadiazine-1(6H)-carboxylate]",89
12,"CC(C)CCOC(=O)N1O[C@H](Cc2ccccc2)C(=O)N2C1CN([C@@H](Cc1ccccc1)C(=O)NCCc1ccccc1)C(=O)[C@@H]2Cc1ccc(O)cc1 (stereo partly drawn) [Compound I-105, isopentyl (3R,6S)-3-benzyl-6-(4-hydroxybenzyl)-4,7-dioxo-8-((S)-1-oxo-1-(phenethylamino)-3-phenylpropan-2-yl)hexahydropyrazino[2,1-c][1,2,4]oxadiazine-1(6H)-carboxylate]",60.9
13,"CC[C@H](C)CN1CC2N(C(=O)OCC3CCCCC3)O[C@H](CC(C)C)C(=O)N2[C@@H](CCCCN)C1=O (stereo partly drawn) [Compound I-31, (3R,6S)-cyclohexylmethyl 6-(4-aminobutyl)-3-isobutyl-8-((S)-2-methylbutyl)-4,7-dioxohexahydropyrazino[2,1-c][1,2,4]oxadiazine-1(6H)-carboxylate]",67.1
14,"COC(=O)N1O[C@H](Cc2ccc(O)cc2)C(=O)N2C1CN(CCc1cccc3ccccc13)C(=O)[C@@H]2C (stereo partly drawn) [Compound I-43, (3R,6S)-methyl 3-(4-hydroxybenzyl)-6-methyl-8-(2-(naphthalen-1-yl)ethyl)-4,7-dioxohexahydropyrazino[2,1-c][1,2,4]oxadiazine-1(6H)-carboxylate]",52.9
15,"CC(C)C[C@H]1ON(C(=O)OCc2ccccc2)C2CN(C3CCN(C)CC3)C(=O)[C@H](CC3CCCCC3)N2C1=O (stereo partly drawn) [Compound I-140, benzyl (3R,6S)-6-(cyclohexylmethyl)-3-isobutyl-8-(1-methylpiperidin-4-yl)-4,7-dioxohexahydropyrazino [2,1-c][1,2,4]oxadiazine-1(6H)-carboxylate]",60.9
16,"CCCC[C@H]1C(=O)N(CCc2cccc3ccccc23)CC2N(C(=O)OCCc3ccc(O)cc3)O[C@H](Cc3ccc(O)cc3)C(=O)N21 (stereo partly drawn) [Compound I-45, (3R,6S)-4-hydroxyphenethyl 6-butyl-3-(4-hydroxybenzyl)-8-(2-(naphthalen-1-yl)ethyl)-4,7-dioxohexahydropyrazino[2,1-c][1,2,4]oxadiazine-1(6H)-carboxylate]",54.9
17,"CCCCCOC(=O)N1O[C@H](CC(C)C)C(=O)N2C1CN([C@@H](Cc1ccccc1)C(=O)NCCC(C)C)C(=O)[C@@H]2Cc1ccc(O)cc1 (stereo partly drawn) [Compound I-92, pentyl (3R,6S)-6-(4-hydroxybenzyl)-3-isobutyl-8-((S)-1-(isopentylamino)-1-oxo-3-phenylpropan-2-yl)-4,7-dioxohexahydropyrazino[2,1-c][1,2,4]oxadiazine-1(6H)-carboxylate]",50.1
18,"CCCC[C@@H](C(=O)NCCc1ccccc1)N1CC2N(C(=O)OCCc3ccc(O)cc3)O[C@H](CC(C)C)C(=O)N2[C@@H](Cc2ccc(O)cc2)C1=O (stereo partly drawn) [Compound I-103, 4-hydroxyphenethyl (3R,6S)-6-(4-hydroxybenzyl)-3-isobutyl-4,7-dioxo-8-((S)-1-oxo-1-(phenethylamino)hexan-2-yl)hexahydropyrazino[2,1-c][1,2,4]oxadiazine-1(6H)-carboxylate]",59.9
